This note sets out measurements from patent US10864211B2, “Hydroxy isoxazole compounds useful as GPR120 agonists” (Merck Sharp & Dohme Corp., priority 2016, dated 2020).

For this experiment, the target named is T1, human GPR120 (Homo sapiens, UniProt Q5NUL3).
T1 construct: expressed in transfected cells; host or cells: CHO-K1
T1 sequence (Q5NUL3 1-361): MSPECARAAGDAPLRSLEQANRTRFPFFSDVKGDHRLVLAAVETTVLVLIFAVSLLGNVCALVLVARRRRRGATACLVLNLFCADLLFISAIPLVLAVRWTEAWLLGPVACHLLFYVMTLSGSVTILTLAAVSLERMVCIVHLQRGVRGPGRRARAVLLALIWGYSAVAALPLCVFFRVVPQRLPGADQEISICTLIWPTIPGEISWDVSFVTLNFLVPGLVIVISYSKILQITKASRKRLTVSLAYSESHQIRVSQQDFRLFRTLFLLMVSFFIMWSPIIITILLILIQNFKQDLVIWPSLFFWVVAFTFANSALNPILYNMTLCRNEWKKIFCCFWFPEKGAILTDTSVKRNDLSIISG
The experiment is described as follows: Human GPR120 IP1 assay (inositol phosphate turnover). The experiment is classed as cell-based. Particulars: IP1 accumulation in CHO-K1 cells stably expressing the short form of human GPR120. From the text:
The binding of small molecule agonists to the G-protein-coupled receptor GPR120 activates phospholipase C, and leads to the generation of inositol 1,4,5-trisphosphate (InsP3 or IP3). IP3 is subsequently de-phosphorylated to IP1, which accumulates in cells and is stable in the presence of lithium chloride.
In the present method, agonist-induced activation of the human and rat GPR120 receptor was monitored by measuring the accumulation of IP1 in CHO-K1 cells that were stably expressing the short form of human GPR120 (Accession #NM_001195755) or HEK293 cells stably expressing rat GPR120 (Accession #NM_001047088). Following agonist addition, GPR120 activation and subsequent accumulation of IP1 was measured using a homogeneous Time Resolved Fluorescence-based ELISA commercially available from CisBio (IP-one ELISA Kit). The IP-One ELISA was a competitive immunoassay which uses IP1 labeled with […] and a terbium cryptate-labeled anti-IP1 monoclonal antibody. […] The signal loss was then back calculated to IP1 concentration using an IP1 standard curve. Determination of IP1 concentration was a direct measure of GPR120 activation and was used to determine compound potency (EC50).
Human GPR120 stable cell-lines were generated in CHO cells. The expression plasmids were transfected using lipofectamine (Life Technologies) following manufacturer's instructions. Stable cell-lines were generated following drug selection and single cell cloning. Rat GPR120 stable cell-lines were generated in HEK cells using the Jump-In™ cell engineering platform (Life Technologies) following manufacturer's instructions. Stable cell-lines were generated following drug selection and single cell cloning.
The assay was performed in 384-well format. CHO cells stably expressing human GPR120 were plated at 20,000 cells per well in growth medium (DMEM/F12, 10% fetal calf serum). HEK293 cells stably expressing rat GPR120 were plated at […] per well in growth medium (DMEM, 10% fetal calf serum). Cell plates were then incubated 16 hours at 37 degrees in a 5% CO2 incubator. Measurement of Inositol Phosphate Turnover (IP1) was performed using the CisBio IP-One kit (Part number 62IPAPEB). After the 16 hour incubation, the growth media was removed by centrifugation using the BlueWasher (AusWasher GUI Ver. v1.0.1.8) Protocol #21-“Light Dry” and 10 μl of stimulation buffer (prepared as described in the kit) was added to each well. In a separate plate, compounds were diluted in DMSO (200-fold over the final concentration in the assay well) and 50 nl was acoustically transferred to the appropriate well in the assay cell plate. The plates were then incubated for 60 minutes at 37 degrees in a 5% CO2 incubator. 10 μl of detection buffer (also prepared as described in the IP-One kit) was added to each well and the plates were incubated at room temperature for 60 minutes in the dark. The plates were then read in a Perkin ElmerEnVision or equivalent reader able to measure FRET. Fluorescent ratio of emission at 665 and 620 nm was then converted to the IP1 concentration by back calculating from an IP1 standard curve prepared at the time of the assay. The data was normalized to % activity using a reference compound, and the EC50 values were determined using a standard 4-parameter fit.

Structures are written as SMILES. Structures can show the parent of a compound that is named as a salt.

For the compound `Oc1cc(-c2cnc(O[C@H]3C[C@@H](c4ccc5c(c4)OCCO5)C3)cn2)on1` [Example 42, ammonium 5-(5-{[cis-3-(2,3-dihydro-1,4-benzodioxin-6-yl)cyclobutyl]oxy}pyrazin-2-yl)isoxazol-3-olate], the response was half-maximal at 0.085 µM (EC50). As for `Oc1cc(-c2cnc(O[C@H]3C[C@@H](c4cccc5ccccc54)C3)cn2)on1` [Example 43, 5-{5-[(cis-3-naphthalen-1-ylcyclobutyl)oxy]pyrazin-2-yl}isoxazol-3-ol], the EC50 (commonly the concentration needed to bring the measured effect to its halfway point) worked out at 0.13 µM. `Cc1cc([C@H]2C[C@@H](Oc3cnc(-c4cc(O)no4)cn3)C2)ccc1OC(F)(F)F` [Example 44, 5-[5-({cis-3-[3-methyl-4-(trifluoromethoxy)phenyl]cyclobutyl}oxy)pyrazin-2-yl]isoxazol-3-ol] returned a concentration for a half-maximal effect (EC50) of 0.06 µM. For `Oc1cc(-c2cnc(O[C@H]3C[C@@H](c4ccc(F)c(C(F)F)c4)C3)cn2)on1` [Example 45, 5-[5-({cis-3-[3-(difluoromethyl)-4-fluorophenyl]cyclobutyl}oxy)pyrazin-2-yl]isoxazol-3-ol], the EC50 turned out to be 0.024 µM. Compound `Cc1ccc([C@H]2C[C@@H](Oc3cnc(-c4cc(O)no4)cn3)C2)c(F)c1` [Example 46, 5-(5-{[cis-3-(2-fluoro-4-methylphenyl)cyclobutyl]oxy}pyrazin-2-yl)isoxazol-3-ol] showed an EC50 of 0.036 µM. Compound `Cc1ccc([C@H]2C[C@H](Oc3cnc(-c4cc(O)no4)cn3)C2)c(F)c1` [Example 47, 5-(5-{[trans-3-(2-fluoro-4-methylphenyl)cyclobutyl]oxy}pyrazin-2-yl)isoxazol-3-ol] returned an EC50 of 0.104 µM. As for `Cc1ccc([C@H]2C[C@@H](Oc3cnc(-c4cc(O)no4)cn3)C2)c(F)c1` [Example 48, 5-(5-{[cis-3-(2-fluoro-4-methylphenyl)cyclobutyl]oxy}pyrazin-2-yl)isoxazol-3-ol], the figure is 0.024 µM; as for `Oc1cc(-c2cnc(O[C@H]3C[C@@H](c4c(F)cc(Cl)cc4F)C3)cn2)on1` [Example 49, ammonium 5-(5-{[cis-3-(4-chloro-2,6-difluorophenyl)-cyclobutyl]oxy}pyrazin-2-yl)isoxazol-3-olate], 0.0097 µM; as for `Oc1cc(-c2cnc(O[C@H]3C[C@@H](c4c(F)cc(OC(F)F)cc4F)C3)cn2)on1` [Example 50, ammonium 5-[5-({cis-3-[4-(difluoromethoxy)-2,6-difluorophenyl]cyclobutyl}oxy)pyrazin-2-yl]isoxazol-3-olate], 0.023 µM. As for `Cc1cc(F)c([C@H]2C[C@@H](Oc3cnc(-c4cc(O)no4)cn3)C2)c(F)c1` [Example 51, ammonium 5-(5-{[cis-3-(2,6-difluoro-4-methyl-phenyl)-cyclobutyl]oxy}pyrazin-2-yl)isoxazol-3-olate], the figure is 0.016 µM. With `Oc1cc(-c2cnc(O[C@H]3C[C@@H](c4cc(F)c(Cl)c(F)c4)C3)cn2)on1` [Example 52, 5-(5-{[cis-3-(4-chloro-3,5-di-fluorophenyl)cyclobutyl]oxy}pyrazin-2-yl)isoxazol-3-ol], the EC50 worked out at 0.028 µM. As for `Oc1cc(-c2cnc(O[C@H]3C[C@@H](c4cc(F)c(OC(F)F)c(F)c4)C3)cn2)on1` [Example 53, ammonium 5-[5-({cis-3-[4-(difluoromethoxy)-3,5-di-fluorophenyl]cyclobutyl}oxy)pyrazin-2-yl]isoxazol-3-olate], the figure is 0.014 µM; as for `COc1cc(OC)cc([C@H]2C[C@@H](Oc3cnc(-c4cc(O)no4)cn3)C2)c1` [Example 54, ammonium 5-(5-{[cis-3-(3,5-dimethoxyphenyl)cyclobutyl]oxy}pyrazin-2-yl)isoxazol-3-olate], 0.099 µM.

Consider `Oc1cc(-c2cnc(O[C@H]3C[C@@H](c4ccc(C(F)(F)F)cc4)C3)cn2)on1` [Example 55, 5-[5-({cis-3-[4-(trifluoromethyl)phenyl]cyclobutyl}oxy)pyrazin-2-yl]isoxazol-3-ol], for which a half-maximal effect (EC50) was put at 0.011 µM. On to `Oc1cc(-c2cnc(O[C@H]3C[C@@H](c4ccc(OC(F)(F)F)cc4)C3)cn2)on1` [Example 56, 5-[5-({cis-3-[4-(trifluoromethoxy)phenyl]cyclobutyl}oxy)pyrazin-2-yl]isoxazol-3-ol], for which a half-maximal response (EC50) required 0.049 µM. On to `Cc1ccc([C@H]2C[C@@H](Oc3cnc(-c4cc(O)no4)cn3)C2)cc1F` [Example 57, 5-(5-{[cis-3-(3-fluoro-4-methylphenyl)cyclobutyl]oxy}pyrazin-2-yl)isoxazol-3-ol], for which the EC50 turned out to be 0.023 µM. `Oc1cc(-c2cnc(O[C@H]3C[C@@H](c4ccc(OC(F)F)cc4)C3)cn2)on1` [Example 58, 5-[5-({cis-3-[4-(difluoromethoxy)phenyl]cyclobutyl}oxy)pyrazin-2-yl]isoxazol-3-ol] returned an EC50 of 0.104 µM. For `Oc1cc(-c2cnc(O[C@H]3C[C@@H](c4ccc(C(F)F)cc4)C3)cn2)on1` [Example 59, 5-[5-({cis-3-[4-(difluoromethyl)phenyl]cyclobutyl}oxy)pyrazin-2-yl]isoxazol-3-ol], the EC50 amounted to 0.008 µM. As for `Oc1cc(-c2cnc(O[C@H]3C[C@H](c4ccc(OC5CC5)cc4)C3)cn2)on1` [Example 60, 5-[5-({trans-3-[4-(cyclopropyloxyl)phenyl]cyclobutyl}oxy)pyrazin-2-yl]isoxazol-3-ol], the figure is 0.013 µM; as for `Oc1cc(-c2ccc(O[C@H]3C[C@@H](OCc4ccc(F)c(F)c4)C3)nc2)on1` [Example 62, 2-({cis-3-[(3,4-difluorobenzyl)oxy]cyclobutyl}oxy)-5-(3-hydroxy-isoxazol-5-yl)pyridinium trifluoroacetate], 0.04 µM. As for `Oc1cc(-c2cnc(O[C@H]3C[C@@H](Oc4ccc(F)c(Cl)c4)C3)cn2)on1` [Example 63, ammonium 5-(5-{[cis-3-(3-chloro-4-fluorophenoxy)cyclobutyl]-oxy}pyrazin-2-yl)isoxazol-3-olate], the figure is 0.053 µM; as for `Oc1cc(-c2ccc(OCC3CC(Oc4ccccc4)C3)nc2)on1` (stereo not drawn) [Example 64, ammonium 5-{6-[(3-phenoxycyclobutyl)methoxy]pyridin-3-yl}isoxazol-3-olate], 1.99 µM; as for `Oc1cc(-c2cnc(O[C@H]3C[C@@H](COc4ccc(F)cc4)C3)cn2)on1` [Example 65, sodium 5-[5-({cis-3-[(4-fluorophenoxy)methyl]-cyclobutyl}oxy)pyrazin-2-yl]isoxazol-3-olate], 0.0058 µM. In the case of `Oc1cc(-c2cnc(O[C@H]3C[C@@H](Oc4cccc(C(F)(F)F)c4)C3)cn2)on1` [Example 66, ammonium 5-[5-({cis-3-[3-(trifluoromethyl)phenoxy]cyclobutyl}oxy)pyrazin-2-yl]isoxazol-3-olate], the EC50 came to 0.037 µM. Turning to `Oc1cc(-c2cnc(O[C@H]3C[C@@H](Oc4ccc(C(F)(F)F)cc4)C3)cn2)on1` [Example 67, ammonium 5-[5-({cis-3-[4-(trifluoromethyl)phenoxy]cyclobutyl}oxy)pyrazin-2-yl]isoxazol-3-olate], the half-maximal effective concentration (EC50) amounted to 0.047 µM. With `Oc1cc(-c2cnc(O[C@H]3C[C@@H](Oc4cccc(OC(F)(F)F)c4)C3)cn2)on1` [Example 68, 5-[5-({cis-3-[3-(trifluoromethoxy)phenoxy]cyclobutyl}oxy)pyrazin-2-yl]isoxazol-3-ol] the figure was 0.052 µM. Compound `Oc1cc(-c2cnc(O[C@H]3C[C@@H](Oc4csc(C(F)(F)F)c4)C3)cn2)on1` [Example 69, 5-{5-[(cis-3-{[5-(trifluoromethyl)thiophen-3-yl]oxy}cyclobutyl)oxy]pyrazin-2-yl}isoxazol-3-ol] gave an EC50 of 0.025 µM.
